≈ marks a conversion by molar mass, not a printed value.
Tests used:
[1] = test system: SARS-CoV-2 pseudovirus Brazil P.1; experiment: microbe, parasite or virus in culture; assay type: cell-based
[2] = test system: SARS-CoV-2 pseudovirus New York B.1.526; experiment: microbe, parasite or virus in culture; assay type: cell-based
[3] = test system: SARS-CoV-2 pseudovirus California B.1.429; experiment: microbe, parasite or virus in culture; assay type: cell-based
[4] = test system: SARS-CoV-2 pseudovirus India B.1.617.1; experiment: microbe, parasite or virus in culture; assay type: cell-based
[5] = test system: SARS-CoV-2 pseudovirus Uganda A23.1; experiment: microbe, parasite or virus in culture; assay type: cell-based
[6] = test system: SARS-CoV-2 pseudovirus Nigeria B.1.525; experiment: microbe, parasite or virus in culture; assay type: cell-based
[7] = test system: SARS-CoV-2; settings: mouse, in vivo
[8] = test system: SARS-CoV-2 pseudovirus South Africa B.1.351; experiment: microbe, parasite or virus in culture; assay type: cell-based
[9] = test system: SARS-CoV-2 pseudovirus Wuhan D614; experiment: microbe, parasite or virus in culture; assay type: cell-based
[10] = target: T1, SARS-CoV-2 main protease (Mpro) (Severe acute respiratory syndrome coronavirus 2, UniProt P0DTD1); assay type: biochemical; settings: read-out: half maximal effective concentration (EC50) against Mpro activity
T1 construct: a recombinant 2019-nCoV 3CL protease protein (Elabscience bio Inc) was used; purchased Elabscience bio Inc

[11] = target: T2, Cathepsin B (Homo sapiens, UniProt P07858); experiment: Cathepsin B Inhibitor Screening Assay Kit (fluorescence); assay type: biochemical; settings: Cathepsin B 0.4 ng/group, 50 μL reaction; read-out: half maximal effective concentration (EC50) against Cathepsin B protease activity
T2 construct: purchased BPS BIOSCIENCE 79590
Description: In the biochemical test, the Cathepsin B Fluorescence Assay Kit (Cathepsin B Inhibitor Screening Assay Kit, BPS BIOSCIENCE, 79590) was used in the test method. According to the manufacturer's manual, the inhibition activity was measured through continuous kinetic analysis, the samples containing Cathepsin B were reacted with a fluorescent substrate in the mixing, and the measured fluorescence (λex=360 nm, λem=460 nm) readings were used. The E64 protease inhibitor was used as a positive control. The experiment was conducted in a 50 μL reaction system, with a single reaction dose of Cathepsin B at 0.4 ng/group, the E64 protease inhibitor were used as a positive control. The inhibitory impact of various concentrations of Anisomelic acid (0.5, 1, 2.5, 5, 10, 20, and 30 μM) against Cathepsin B protease activity was examined. The significant inhibition of Anisomelic acid against Cathepsin B protease activity was found in a dose-dependent manner.

[12] = target: T3, TMPRSS2 (Homo sapiens, UniProt O15393); experiment: TMPRSS2 Fluorogenic Assay Kit; assay type: biochemical; settings: TMPRSS2 150 ng/group, 50 μL reaction; read-out: half maximal effective concentration (EC50) against TMPRSS2 protease activity
T3 construct: purchased BPS BIOSCIENCE 78083
T3 sequence (O15393 whole entry): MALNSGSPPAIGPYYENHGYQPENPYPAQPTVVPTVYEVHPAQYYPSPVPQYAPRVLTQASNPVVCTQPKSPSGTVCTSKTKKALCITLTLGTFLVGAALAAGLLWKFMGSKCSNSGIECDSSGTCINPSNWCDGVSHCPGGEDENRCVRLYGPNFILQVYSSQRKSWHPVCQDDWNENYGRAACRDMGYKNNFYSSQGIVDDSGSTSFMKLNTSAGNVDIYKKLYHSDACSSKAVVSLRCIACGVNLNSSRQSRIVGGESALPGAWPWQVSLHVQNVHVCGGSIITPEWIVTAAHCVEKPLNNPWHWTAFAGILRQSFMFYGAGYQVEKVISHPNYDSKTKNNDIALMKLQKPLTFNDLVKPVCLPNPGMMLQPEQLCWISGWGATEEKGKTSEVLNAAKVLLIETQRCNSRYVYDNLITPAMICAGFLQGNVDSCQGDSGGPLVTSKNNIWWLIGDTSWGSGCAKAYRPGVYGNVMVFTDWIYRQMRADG
Description: In the biochemical experiments, TMPRSS2 Fluorescence Assay Kit (TMPRSS2 Fluorogenic Assay Kit, BPS BIOSCIENCE, 78083) was used in the test method. Inhibitory activity was measured by sequential kinetic analysis according to the manufacturer's manual, the inhibition activity was measured by using continuous kinetic analysis, the samples containing TMPRSS2 were reacted with a fluorescent substrate in a mixing, and a fluorescence (λex=383 nm, λem=455 nm) readings were used. Camostat protease inhibitor was used as a positive control. The experiment was performed in a 50 μL reaction system, the single reaction dose of TMPRSS2 was 150 ng/group, and 10 μM Camostat protease inhibitor was used as a positive control. The effect of Anisomelic acid on the inhibition of TMPRSS2 protease activity was examined by tested various concentrations of Anisomelic acid (0.5, 1, 2.5, 5, 10, 20 and 30 μM). A significant inhibition of Anisomelic acid against TMPRSS2 protease activity was found in a dose-dependent manner.

[13] = target: Cathepsin L (Homo sapiens, UniProt P07711); experiment: Cathepsin L Inhibitor Screening Assay Kit (fluorescence); assay type: biochemical; settings: Cathepsin L 0.4 ng/group, 50 μL reaction; read-out: half maximal effective concentration (EC50) against Cathepsin L protease activity
Chain of Cathepsin L (P07711 114-333): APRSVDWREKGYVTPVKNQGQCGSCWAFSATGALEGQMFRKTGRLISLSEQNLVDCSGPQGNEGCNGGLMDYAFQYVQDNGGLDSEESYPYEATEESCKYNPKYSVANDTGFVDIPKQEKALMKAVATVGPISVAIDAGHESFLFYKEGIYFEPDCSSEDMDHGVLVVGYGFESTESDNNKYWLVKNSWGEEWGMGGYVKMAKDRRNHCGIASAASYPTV
Description: The Cathepsin L Fluorescence Assay Kit (Cathepsin L Inhibitor Screening Assay Kit, BPS BIOSCIENCE, 79591) was used in the biochemical test method. According to the manufacturer's manual, the inhibition activity was measured through continuous kinetic analysis, the samples containing Cathepsin L were reacted with a fluorescent substrate in mixing, and the measured fluorescence (λex=360 nm, λem=460 nm) readings were used. The E64 protease inhibitor was used as a positive control. The experiment was conducted in a 50 μL reaction system, with a single reaction dose of Cathepsin L at 0.4 ng/group, the E64 was used as the positive control of inhibition. The inhibitory impact of various concentrations of Anisomelic acid (0.5, 1, 2.5, 5, 10, 20, and 30 μM) against Cathepsin L protease activity was examined. As shown in the right graph of FIG. 5B, the significant inhibition of Anisomelic acid against Cathepsin L protease activity was found in a dose-dependent manner.

[14] = Severe acute respiratory syndrome-related coronavirus, Huh-7, read-out: IC50 inhibiting infection

Compound	changes in body weight of the mice [7]	IC50 inhibiting infection [1] [µg/mL]	IC50 inhibiting infection [2] [µg/mL]	IC50 inhibiting infection [3] [µg/mL]	IC50 inhibiting infection [4] [µg/mL]	IC50 inhibiting infection [5] [µg/mL]	IC50 inhibiting infection [6] [µg/mL]	IC50 inhibiting infection [8] [µg/mL]	IC50 inhibiting infection [9] [µg/mL]	also measured
CCC(CC)COC(=O)[C@H](C)N[P@](=O)(OC[C@H]1O[C@@](C#N)(c2ccc3c(N)ncnn23)[C@H](O)[C@@H]1O)Oc1ccccc1 [Remdesivir, reference compound]	basically similar									IC50 [1, 14]: 13.8 µg/mL (≈ 22.8 µM); IC50 [2, 14]: 15 µg/mL (≈ 24.9 µM); IC50 [3, 14]: 15.9 µg/mL (≈ 26.4 µM); IC50 [4, 14]: 11.9 µg/mL (≈ 19.8 µM); IC50 [5, 14]: 7.63 µg/mL (≈ 12.7 µM); IC50 [6, 14]: 10.3 µg/mL (≈ 17.1 µM); IC50 [8, 14]: 27.2 µg/mL (≈ 45.2 µM); IC50 [9, 14]: 2.96 µg/mL (≈ 4.91 µM)
C=C1C(=O)O[C@@H]2/C=C(\C)C[C@H]3C=C(CC/C=C(\C)CC[C@@H]12)C(=O)O3 [Ovatodiolide]	basically similar	7.00 (≈ 21.3 µM)	11.35 (≈ 34.6 µM)	12.09 (≈ 36.8 µM)	15.27 (≈ 46.5 µM)	6.72 (≈ 20.5 µM)	8.24 (≈ 25.1 µM)	15.42 (≈ 47 µM)	4.08 (≈ 12.4 µM)	
C=C1C(=O)OC2/C=C(/C)CC/C=C(\C(=O)O)CC/C=C(\C)CCC12 (centres unmarked) [Anisomelic acid]	basically similar	0.12 (≈ 0.363 µM)	8.86 (≈ 26.8 µM)	8.47 (≈ 25.6 µM)	10.09 (≈ 30.5 µM)	15.53 (≈ 47 µM)	14.36 (≈ 43.5 µM)	27.55 (≈ 83.4 µM)	3.50 (≈ 10.6 µM)	EC50 [10]: 9.77 µM; EC50 [11]: 4.23 µM; EC50 [12]: 6.51 µM; EC50 [13]: 3.69 µM; changes in the titers of coronavirus infection in the lungs of mice [7]: better prevention and control effects

From patent US20240408055A1 (priority 2021, published 2024)
